Where a name gives a salt, the structure may show the parent alone.
What was measured:
[1] = molecular target: T1, bovine serum albumin (BSA) (Bos taurus, UniProt P02769); experiment: Protein binding studies: BSA solution, centrifugal filter devices, drug in filtrate by HPLC; format: in vitro ADME; conditions: 37° C.; for % Protein Binding: didanosine derivatives of Examples 24 and 25, 4% BSA; for % Albumin binding: method of Example 7, 4% BSA
T1 construct: a solution of bovine serum albumin (BSA) in water
T1 sequence (P02769 25-607): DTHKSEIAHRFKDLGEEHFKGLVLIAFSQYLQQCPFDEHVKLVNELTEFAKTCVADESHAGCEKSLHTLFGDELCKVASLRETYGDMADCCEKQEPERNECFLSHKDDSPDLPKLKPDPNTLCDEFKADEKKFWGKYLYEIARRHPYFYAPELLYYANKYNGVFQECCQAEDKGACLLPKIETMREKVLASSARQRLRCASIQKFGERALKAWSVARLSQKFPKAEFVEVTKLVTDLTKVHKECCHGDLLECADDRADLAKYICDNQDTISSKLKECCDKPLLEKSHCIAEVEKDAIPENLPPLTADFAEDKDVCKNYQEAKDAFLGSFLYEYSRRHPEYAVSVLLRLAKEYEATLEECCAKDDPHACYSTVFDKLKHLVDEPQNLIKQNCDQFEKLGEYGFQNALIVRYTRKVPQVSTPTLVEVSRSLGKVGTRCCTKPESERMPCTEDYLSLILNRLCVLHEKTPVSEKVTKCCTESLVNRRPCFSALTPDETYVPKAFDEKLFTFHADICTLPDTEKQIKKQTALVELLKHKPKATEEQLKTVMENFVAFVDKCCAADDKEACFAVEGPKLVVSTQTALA
Experimental: The compound (approximately 5 mg) was dissolved in DMSO (approximately 1.8 ml). A small sample of this DMSO solution (approximately 5 mg) was added to a solution of bovine serum albumin (BSA) in water (approximately 1.8 ml, 4% BSA). Another sample of the DMSO solution (approximately 5 mg) was added to a solution of phosphate buffer pH 7.4 (isotonic) (approximately 1.8 ml).
Both samples were shaken in a water bath for 30 minutes at 37° C.
The devices were centrifugated at 4000 rpm for 1 hour at 37° C.
The amount of drug in the filtrates was determined by HPLC (C-18 column, phosphate buffer pH 2.2/acetonitrile, UV detection).

nude mice = experiment: Toxicity of 5-O-(azelaoyl) 1-beta-D-arabinofuranosyl-cytosine meglumine salt in nude mice; format: in vivo; conditions: 8.5 mg/ml solution, 0.1 ml i.p. twice (second injection on day 3), nude mice (20 g) with implanted human colon cancer, observed for 13 days
Experimental: (§1) A solution of 5′-O-(azelaoyl) 1-β-D-arabinofuranosyl-cytosine meglumine salt was prepared by dissolving N-methyl-D-glucamine (6.0 mg, 0.030 mmol) and 5′-O-(azelaoyl) 1-β-D-arabinofuranosyl-cytosine (8.5 mg, 0.020 mmol) in a sterile saline solution (1.0 ml). The solution was shaken with a ESPE Capmix shaker for 60 seconds before injection.
(§2) The solution for injection (azelaoyl derivative) from Example 46 was administered i.p. twice (0.1 ml) to 4 nude mice (20 g). The mice had implanted human colon cancer on the leg. The second injection was on day 3.

[2] = system: implanted human colon cancer; experiment: Efficacy of cytarabin azelaic acid derivative versus cytarabin, tumor size in nude mice; format: in vivo; conditions: solutions of Example 46, 0.1 ml i.p. twice, tumor size determined at day 13
Experimental: A solution of cytarabin hydrochloride was prepared by dissolving the hydrochloride salt (5.0 mg) in a sterile saline solution (1.0 ml). The solution was shaken with a ESPE Capmix shaker for 60 seconds before injection.
as §1, §2
The solutions (cytarabin and cytarabine azelaic derivative) described in Example 46 were injected as described in Example 47 (4 animals in each group). The size of the tumor was determined at day 13.

[3] = 6-mercaptopurine and 6-mercaptopurine prodrugs
[4] = didanosine and didanosine prodrugs

`O=C(O)Cc1ccccc1CC(=O)OC[C@@H]1CC[C@H](n2cnc3c(O)ncnc32)O1` [5′-(2′3′-dideoxyinosine) mono 1,2-benzenediacetic acid ester] was tested, and the “% Protein Binding” value [1] was 25%.

For `O=C(O)CCc1ccc(CCC(=O)OC[C@@H]2CC[C@H](n3cnc4c(O)ncnc43)O2)cc1` [5′-(2′3′-dideoxyinosine) mono 1,4-benzenedipropionic acid ester], the “% Protein Binding” value [1] was 63%.

For `O=C(O)Cc1cccc(CC(=O)OC[C@@H]2CC[C@H](n3cnc4c(O)ncnc43)O2)c1` [5′-(2′,3′-dideoxyinosine) mono 1,3-benzenediacetic acid ester], the “% Protein Binding” value [1] was 38%.

`O=C(O)c1cccc(C(=O)OC[C@@H]2CC[C@H](n3cnc4c(O)ncnc43)O2)c1` [5′-(2′,3′-dideoxyinosine) mono 1,3-benzenedicarboxylic acid ester] was tested, and the “% Protein Binding” value [1] was 51%.

For `O=C(O)Cc1ccc(CC(=O)OC[C@@H]2CC[C@H](n3cnc4c(O)ncnc43)O2)cc1` [5′-(2′,3′-dideoxyinosine) mono 1,4-benzenediacetic acid ester], the “% Protein Binding” value [1] was 28%.

`O=C(O)c1ccc(C(=O)OC[C@@H]2CC[C@H](n3cnc4c(O)ncnc43)O2)cc1` [5′-(2′,3′-dideoxyinosine) mono 1,4-benzenedicarboxylic acid ester] was tested, and the “% Protein Binding” value [1] was 44%.

`Sc1ncnc2nc[nH]c12` [6-Mercaptopurine, reference compound] was tested, and the “% Albumin binding” value [1, 3] was 10%.

With `COC(=O)CCCCCSc1ncnc2[nH]cnc12` [Example 9, 6-(1H-purin-6-ylthio)-hexanoic acid methyl ester] the “% Albumin binding” value [1, 3] was 72%.

`COC(=O)CCCCCCCCCCCSc1ncnc2[nH]cnc12` [Example 10, 12-(1H-purin-6-ylthio)-dodecanoic acid methyl ester] was tested, and the “% Albumin binding” value [1, 3] was “insoluble”.

In the case of `O=C(O)CCCCCCCCCCCSc1ncnc2[nH]cnc12` [Example 11, 12-(1H-purin-6-ylthio)dodecanoic acid], the “% Albumin binding” value [1, 3] was 100%.

With `O=C(O)CCCCC(=O)OCC1CCC(n2cnc3c(=O)[nH]cnc32)O1` (stereo not drawn) [Example 21, 2′,3′-dideoxy-5′-hydrogen hexanedioate inosine] the “% Albumin binding” value [1, 4] was 100%.

`O=C(O)CCCCCCC(=O)OCC1CCC(n2cnc3c(=O)[nH]cnc32)O1` (stereo not drawn) [Example 22, 2′,3′-dideoxy-5′-hydrogen octanedioate inosine] was tested, and the “% Albumin binding” value [1, 4] was 10%.

In the case of `O=C(O)CCCCCCCCCCC(=O)OCC1CCC(n2cnc3c(=O)[nH]cnc32)O1` (stereo not drawn) [Example 23, 2′,3′-dideoxy-5′-hydrogen dodecanedioate inosine], the “% Albumin binding” value [1, 4] was 40%.

For `CC(C)(C)OC(=O)OC[C@@H]1CC[C@H](n2cnc3c(O)ncnc32)O1` [Example 24, 5′-Boc,-2′3′-dideoxyinosine], the “% Albumin binding” value [1, 4] was 94% and the “% Protein Binding” value [1] was 8%.

In the case of `CNC[C@H](O)[C@@H](O)[C@H](O)[C@H](O)CO.Nc1ccn([C@@H]2O[C@H](COC(=O)CCCCCCCC(=O)O)[C@@H](O)[C@@H]2O)c(=O)n1` [Example 45, 5′-O-(azelaoyl) 1-β-D-arabinofuranosyl-cytosine meglumine salt], the sign of toxicity (nude mice) was “did not show any sign of toxicity” and the average tumor growth [2] was “average tumor growth was higher for cytarabin treated mice than for mice treated with azelaic acid derivative”.

In the case of `Nc1ccn([C@@H]2O[C@H](CO)[C@@H](O)[C@@H]2O)c(=O)n1` [cytarabin, cytarabin hydrochloride, reference compound], the average tumor growth [2] was “higher for cytarabin treated mice than for mice treated with azelaic acid derivative”.
